{"source": "patent US9981023B2", "about": "“Compositions and methods for inducing immune tolerance” (The Scripps Research Institute, priority 2010, dated 2018)", "molecular_target": "T1, CD22 (Mus musculus, UniProt P35329)", "T1 sequence (P35329 22-868)": "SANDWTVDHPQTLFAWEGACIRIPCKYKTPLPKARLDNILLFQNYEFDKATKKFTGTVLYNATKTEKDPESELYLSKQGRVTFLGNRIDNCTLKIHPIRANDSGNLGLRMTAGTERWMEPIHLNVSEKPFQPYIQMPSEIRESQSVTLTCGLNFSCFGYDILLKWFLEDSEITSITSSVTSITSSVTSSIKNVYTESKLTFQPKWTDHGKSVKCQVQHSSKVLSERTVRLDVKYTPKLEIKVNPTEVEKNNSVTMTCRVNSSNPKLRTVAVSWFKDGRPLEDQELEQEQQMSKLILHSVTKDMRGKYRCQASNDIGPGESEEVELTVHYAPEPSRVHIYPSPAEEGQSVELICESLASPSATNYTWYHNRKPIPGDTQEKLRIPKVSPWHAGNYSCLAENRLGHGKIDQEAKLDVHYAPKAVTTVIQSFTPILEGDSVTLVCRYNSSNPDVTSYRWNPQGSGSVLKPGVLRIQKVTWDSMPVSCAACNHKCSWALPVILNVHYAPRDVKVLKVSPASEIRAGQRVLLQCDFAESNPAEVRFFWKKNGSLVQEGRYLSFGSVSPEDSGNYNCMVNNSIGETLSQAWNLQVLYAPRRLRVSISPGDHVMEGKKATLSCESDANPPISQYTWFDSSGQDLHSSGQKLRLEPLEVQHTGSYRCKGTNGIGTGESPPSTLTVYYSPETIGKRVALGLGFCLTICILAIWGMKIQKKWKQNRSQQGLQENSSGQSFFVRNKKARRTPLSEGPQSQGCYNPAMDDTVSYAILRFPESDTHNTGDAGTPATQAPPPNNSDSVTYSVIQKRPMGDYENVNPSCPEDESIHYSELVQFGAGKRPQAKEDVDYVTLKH", "assay": "Affinity of glycan ligand for CD22", "type": "binding", "conditions": "natural ligand of CD22 relative to ^BPANeuGc", "data": [{"smiles": "CC(=O)NC1C(O)OC(CO)C(OC2OC(COC3(C(=O)O)CC(O)C(NC(=O)CO)C(C(O)C(O)CO)O3)C(O)C(O)C2O)C1O", "note": "(stereo not shown) [NeuGcα2-6Galβ1-4GlcNAc]", "values": [{"measurement": "affinity lower than the ^BPANeuGc ligand", "result": "approximately 200 fold"}]}]}
